According to ChEMBL document CHEMBL1138099, “Synthesis and structure-activity studies of antibacterial oxazolidinones containing dihydrothiopyran or dihydrothiazine C-rings” (2006):
Converted amounts (≈) assume the structure as drawn.

Key:
Format in all cases: functional
Staphylococcus aureus = test: Antimicrobial activity against Staphylococcus aureus
Enterococcus faecium = test: Antimicrobial activity against Enterococcus faecium UC12712
Moraxella catarrhalis = test: Antimicrobial activity against Moraxella catarrhalis
Streptococcus pneumoniae = test: Antimicrobial activity against Streptococcus pneumoniae
Haemophilus influenzae = test: Antimicrobial activity against Haemophilus influenzae

Row | SMILES | MIC (Staphylococcus aureus) [µg/mL] | MIC (Enterococcus faecium) [µg/mL] | MIC (Moraxella catarrhalis) [µg/mL] | MIC (Streptococcus pneumoniae) [µg/mL] | MIC (Haemophilus influenzae) [µg/mL]
1 | O=C(NC[C@H]1CN(c2ccc(N3C=CS(=O)(=O)CC3)cc2)C(=O)O1)C(Cl)Cl | 4 (≈ 9.21 µM) | 2 (≈ 4.61 µM) | 2 (≈ 4.61 µM) | 0.5 (≈ 1.15 µM) | 2 (≈ 4.61 µM)
2 | CC(=O)NC[C@H]1CN(c2ccc(N3C=CS(=O)(=O)CC3)c(F)c2)C(=O)O1 | 4 (≈ 10.4 µM) | 2 (≈ 5.22 µM) | 2 (≈ 5.22 µM) | 0.5 (≈ 1.3 µM) | 4 (≈ 10.4 µM)
3 | CC(=O)NC[C@H]1CN(c2ccc(C3C=CS(=O)(=O)CC3)c(F)c2)C(=O)O1 (stereo partly drawn) | 4 (≈ 10.5 µM) | 2 (≈ 5.23 µM) | 2 (≈ 5.23 µM) | 1 (≈ 2.61 µM) | 8 (≈ 20.9 µM)
4 | O=C(NC[C@H]1CN(c2ccc(N3C=CS(=O)(=O)CC3)c(F)c2)C(=O)O1)C(F)F | 4 (≈ 9.54 µM) | 2 (≈ 4.77 µM) | 4 (≈ 9.54 µM) | 0.5 (≈ 1.19 µM) | 4 (≈ 9.54 µM)
5 | CC(=O)NC[C@H]1CN(c2ccc(N3CCOCC3)c(F)c2)C(=O)O1 [LINEZOLID] |  | 4 (≈ 11.9 µM) | 8 (≈ 23.7 µM) |  | 16 (≈ 47.4 µM)
6 | CC(=O)NC[C@H]1CN(c2cc(F)c(C3C=CS(=O)(=O)CC3)c(F)c2)C(=O)O1 (stereo partly drawn) | 4 (≈ 9.99 µM) | 2 (≈ 4.99 µM) | 8 (≈ 20 µM) | 1 (≈ 2.5 µM) | 8 (≈ 20 µM)
7 | O=C(NC[C@H]1CN(c2ccc(C3C=CS(=O)(=O)CC3)cc2)C(=O)O1)C(F)F (stereo partly drawn) | 4 (≈ 9.99 µM) | 4 (≈ 9.99 µM) | 4 (≈ 9.99 µM) | 1 (≈ 2.5 µM) | 8 (≈ 20 µM)
8 | CC(=O)NC[C@H]1CN(c2ccc(C3C=CS(=O)(=O)CC3)cc2)C(=O)O1 (stereo partly drawn) | 4 (≈ 11 µM) | 4 (≈ 11 µM) | 8 (≈ 22 µM) | 1 (≈ 2.74 µM) | 8 (≈ 22 µM)
9 | O=C(NC[C@H]1CN(c2ccc(C3C=CS(=O)(=O)CC3)cc2)C(=O)O1)C(Cl)Cl (stereo partly drawn) | 2 (≈ 4.62 µM) | 2 (≈ 4.62 µM) | 4 (≈ 9.23 µM) | 0.5 (≈ 1.15 µM) | 4 (≈ 9.23 µM)
10 | O=C(NC[C@H]1CN(c2ccc(N3C=CS(=O)(=O)CC3)cc2)C(=O)O1)C(F)F | 4 (≈ 9.97 µM) | 2 (≈ 4.98 µM) | 4 (≈ 9.97 µM) | 1 (≈ 2.49 µM) | 8 (≈ 19.9 µM)
11 | O=C(NC[C@H]1CN(c2cc(F)c(N3C=CS(=O)(=O)CC3)c(F)c2)C(=O)O1)C(F)F | 4 (≈ 9.15 µM) | 1 (≈ 2.29 µM) | 4 (≈ 9.15 µM) | 0.5 (≈ 1.14 µM) | 4 (≈ 9.15 µM)
12 | O=C(NC[C@H]1CN(c2cc(F)c(N3C=CS(=O)(=O)CC3)c(F)c2)C(=O)O1)C(Cl)Cl | 4 (≈ 8.51 µM) | 1 (≈ 2.13 µM) | 4 (≈ 8.51 µM) | 0.5 (≈ 1.06 µM) | 4 (≈ 8.51 µM)
13 | O=C(NC[C@H]1CN(c2cc(F)c(C3C=CS(=O)(=O)CC3)c(F)c2)C(=O)O1)C(F)F (stereo partly drawn) | 2 (≈ 4.58 µM) | 2 (≈ 4.58 µM) | 8 (≈ 18.3 µM) | 1 (≈ 2.29 µM) | 8 (≈ 18.3 µM)

Further molecules by falling MIC (Staphylococcus aureus), results first:

Row | MIC (Staphylococcus aureus) [µg/mL] | MIC (Enterococcus faecium) [µg/mL] | MIC (Moraxella catarrhalis) [µg/mL] | MIC (Streptococcus pneumoniae) [µg/mL] | MIC (Haemophilus influenzae) [µg/mL] | SMILES
14 | 2 (≈ 4.96 µM) | 2 (≈ 4.96 µM) | 4 (≈ 9.92 µM) | 1 (≈ 2.48 µM) | 4 (≈ 9.92 µM) | CC(=O)NC[C@H]1CN(c2cc(F)c(N3CCS(=O)(=O)CC3)c(F)c2)C(=O)O1
15 | 2 (≈ 4.98 µM) | 1 (≈ 2.49 µM) | 4 (≈ 9.97 µM) | 0.5 (≈ 1.25 µM) | 8 (≈ 19.9 µM) | CC(=O)NC[C@H]1CN(c2cc(F)c(N3C=CS(=O)(=O)CC3)c(F)c2)C(=O)O1
16 | 2 (≈ 4.26 µM) | 2 (≈ 4.26 µM) | 4 (≈ 8.52 µM) | 0.5 (≈ 1.07 µM) | 8 (≈ 17 µM) | O=C(NC[C@H]1CN(c2cc(F)c(C3C=CS(=O)(=O)CC3)c(F)c2)C(=O)O1)C(Cl)Cl (stereo partly drawn)
17 | 2 (≈ 4.79 µM) | 1 (≈ 2.4 µM) | 4 (≈ 9.58 µM) | 0.5 (≈ 1.2 µM) | 4 (≈ 9.58 µM) | O=C1O[C@@H](C/N=C(/S)C(F)F)CN1c1ccc(N2C=CS(=O)(=O)CC2)cc1
18 | 2 (≈ 4.42 µM) | 1 (≈ 2.21 µM) | 2 (≈ 4.42 µM) | 0.5 (≈ 1.11 µM) | 2 (≈ 4.42 µM) | O=C(NC[C@H]1CN(c2ccc(N3C=CS(=O)(=O)CC3)c(F)c2)C(=O)O1)C(Cl)Cl
19 | 2 (≈ 5.2 µM) | 2 (≈ 5.2 µM) | 2 (≈ 5.2 µM) | 0.5 (≈ 1.3 µM) | 4 (≈ 10.4 µM) | CC(=O)NC[C@H]1CN(c2ccc(C3CCS(=O)(=O)CC3)c(F)c2)C(=O)O1
20 | 2 (≈ 4.8 µM) | 2 (≈ 4.8 µM) | 4 (≈ 9.6 µM) | 0.5 (≈ 1.2 µM) | 8 (≈ 19.2 µM) | O=C1O[C@@H](C/N=C(/S)C(F)F)CN1c1ccc(C2C=CS(=O)(=O)CC2)cc1 (stereo partly drawn)
21 | 2 (≈ 4.43 µM) | 2 (≈ 4.43 µM) | 2 (≈ 4.43 µM) | 0.5 (≈ 1.11 µM) | 4 (≈ 8.86 µM) | O=C(NC[C@H]1CN(c2ccc(C3C=CS(=O)(=O)CC3)c(F)c2)C(=O)O1)C(Cl)Cl (stereo partly drawn)
22 | 2 (≈ 4.78 µM) | 2 (≈ 4.78 µM) | 4 (≈ 9.56 µM) | 1 (≈ 2.39 µM) | 4 (≈ 9.56 µM) | O=C(NC[C@H]1CN(c2ccc(C3C=CS(=O)(=O)CC3)c(F)c2)C(=O)O1)C(F)F (stereo partly drawn)
23 | 2 (≈ 4.6 µM) | 1 (≈ 2.3 µM) | 2 (≈ 4.6 µM) | 0.5 (≈ 1.15 µM) | 8 (≈ 18.4 µM) | O=C1O[C@@H](C/N=C(/S)C(F)F)CN1c1ccc(C2C=CS(=O)(=O)CC2)c(F)c1 (stereo partly drawn)
24 | 1 (≈ 2.21 µM) | 2 (≈ 4.42 µM) | 4 (≈ 8.84 µM) | 0.5 (≈ 1.11 µM) | 16 (≈ 35.4 µM) | O=C1O[C@@H](C/N=C(/S)C(F)F)CN1c1cc(F)c(C2C=CS(=O)(=O)CC2)c(F)c1 (stereo partly drawn)
25 | 1 (≈ 2.3 µM) | 1 (≈ 2.3 µM) | 4 (≈ 9.19 µM) | 0.5 (≈ 1.15 µM) | 4 (≈ 9.19 µM) | O=C1O[C@@H](C/N=C(/S)C(F)F)CN1c1ccc(N2C=CS(=O)(=O)CC2)c(F)c1
26 | 1 (≈ 2.21 µM) | 0.25 (≈ 0.551 µM) | 2 (≈ 4.41 µM) | 0.25 (≈ 0.551 µM) | 4 (≈ 8.82 µM) | O=C1O[C@@H](C/N=C(/S)C(F)F)CN1c1cc(F)c(N2C=CS(=O)(=O)CC2)c(F)c1
